Data published in PMC6198510, “Switching Between Bicyclic and Linear Peptides — The Sulfhydryl-Specific Linker TPSMB Enables Reversible Cyclization of Peptides” (Frontiers in Chemistry, 2018).
Where two headings read alike, the source gives them in different places. Starred links: 1 amine or outer side, 2 acyl side, 3 side chain; linkers in the order of their positions; H or OH if unused. Positions of bridges follow the written chain, without caps; N, C: chain ends. Residues, ends and D or L forms follow the SMILES beside them. Benzene(1,3,5-(CH2S)3) = c1c(CS[*:1])cc(CS[*:3])cc1CS[*:2]

What was measured:
JNK3 [1] = molecular target: T1, JNK3 (Homo sapiens, UniProt P53779); assay: competitive fluorescence polarization assay (displacement of PIT0105006); type: binding; conditions: competitive FP
T1 construct: 39-402 was performed as described in literature; made in house
Experimental: (§1) VII: Expression and Purification of JNK3
(§2) The expression and purification of JNK3339-402 was performed as described in literature. [Lange, A.; Günther, M.; Büttner, F. M.; Zimmermann, M. O.; Heidrich, J.; Hennig, S.; Zahn, S.; Schall, C.; Sievers-Engler, A.; Ansideri, F.; et al. Targeting the Gatekeeper MET146 of C-Jun N-Terminal Kinase 3 Induces a Bivalent Halogen/Chalcogen Bond. Journal of the American Chemical Society 2015, 137
(§3) VIII: Fluorescence polarization assay
Fluorescence polarization assays were performed in 96-wellplates (black, non-binding, Greiner bio-one). The measurements were performed in a CLARIOstar microplate reader (BMG Labtech, Ortenberg, Germany; excit. filter: 480 nm and an emiss. filter: 530 nm). Purified JNK3 was diluted in buffer (HEPES-Buffer, 25 mM) containing additional 0.1 mg/mL BSA. […]
The KD was obtained by curve fit based on eleven protein concentrations. For competitive binding fluorescence polarization experiments, sample concentrations between 200 μM and 10 nM were measured in triplicates. A steady concentration of 10 nM was used for JNK3 and of 5 nM for the fluorescein-labelled compound PIT0105006 (KD= 3.0 ± 0.2 nM). [Ansideri, F.; Lange, A; El-Gokha […]
A.; Boeckler F. M.; Koch, P. Fluorescence polarization-based assays for detecting compounds binding […]
503, 28-40.]Control measurements were performed with PIT0104002 (concentration between 10 μM […]
(§4) For all experiments DMSO (>99.5% (GC)) was […]
(§5) consistently used with a steady concentration of 5% (v/v). Before each measurement, the plates were shaked at 350 rpm for 30 min at room temperature on a plate shaker (Eppendorf MixMate). Before the measurement, the plates were incubated within the microplate reader for 2 min at 25°C and the focal height was adjusted to yield the optimal fluorescence intensity. Measured data was plotted and KD values were obtained by curve fitting of a standard four parameter logistic nonlinear regression model using the program Origin 9.1.
IX: Fluorescence polarization data […]
Table S3: Overview of the results obtained in competitive fluorescence polarization assays. a Conversion of obtained IC50 mean values to KI were performed using a web-based application available at: http://sw16.im.med.umich.edu/software/calc_ki/ (19.07.2018) [Cer, R. Z., Mudunuri, U., Stephens, R., & Lebeda, F. J. (2009). IC50-to-Ki: a web-based tool for converting IC50 to Ki values for inhibitors of enzyme activity and ligand binding. Nucleic Acids Research, 37(Web Server issue), W441–W445], SE = standard error from curve fit. […]

JNK3 [2] = molecular target: T1, JNK3; assay: direct titration fluorescence polarization assay; type: binding; conditions: direct titration FP
Experimental: as §1, §2, §3
Fluorescence polarization assays were performed in 96-wellplates (black, non-binding, Greiner bio-one). The measurements were performed in a CLARIOstar microplate reader (BMG Labtech, Ortenberg, Germany; excit. filter: 480 nm and an emiss. filter: 530 nm). Purified JNK3 was diluted in buffer (HEPES-Buffer, 25 mM) containing additional 0.1 mg/mL BSA. In the case of direct binding fluorescence polarization experiments, each protein concentration with a maximum concentration between 5 μM and 200 μM and a minimum concentration between 0.08 nM – 0.76 nM was measured in triplicates. The KD was obtained by curve fit based on eleven protein concentrations. […]
as §4, §5
IX: Fluorescence polarization data
Table S2: Overview of the results obtained in direct titration fluorescence polarization assays.
SE = standard error from curve fit, SD = standard deviation from experiments 1-3. […]
Nucleic Acids Research, 37(Web Server issue), W441–W445], SE = standard error from curve fit. […]

[3] = converted from mean IC50 with web-based IC50-to-Ki tool, read-out: KI
[4] = unlabeled TPSMB bicyclic peptide displacing 5 nM PIT0105006 from 10 nM JNK3, 200 μM-10 nM in triplicates, 5% DMSO, 25°C, experiment 1, read-out: IC50 Exp. 1
[5] = fluorescein-labeled TPSMB-modified bicyclic peptide, JNK3 titrated, eleven protein concentrations in triplicates, 25 mM HEPES, 0.1 mg/mL BSA, 5% DMSO, 25°C, mean of experiments 1-3 (JK16, JK18: one experiment), read-out: Mean KD
[6] = unlabeled TPSMB bicyclic peptide, mean of experiments 1-2 (JK20: one experiment), read-out: Mean IC50

T1 sequence (P53779 39-402 limits assumed): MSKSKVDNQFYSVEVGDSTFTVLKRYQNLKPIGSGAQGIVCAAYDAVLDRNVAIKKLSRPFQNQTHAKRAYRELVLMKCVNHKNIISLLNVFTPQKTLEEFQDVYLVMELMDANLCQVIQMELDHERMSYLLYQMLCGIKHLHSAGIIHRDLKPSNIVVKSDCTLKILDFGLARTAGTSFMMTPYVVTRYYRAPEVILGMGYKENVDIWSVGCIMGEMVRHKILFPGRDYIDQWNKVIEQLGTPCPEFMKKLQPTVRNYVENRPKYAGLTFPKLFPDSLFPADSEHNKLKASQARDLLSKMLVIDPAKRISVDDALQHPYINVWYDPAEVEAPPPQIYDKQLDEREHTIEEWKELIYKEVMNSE

## CSCC[C@@H]1NC(=O)[C@@H]2CSSCc3cc(cc(c3)CSSC[C@@H](C(=O)NCC(N)=O)NC(=O)[C@H](Cc3c[nH]c4ccccc34)NC(=O)[C@H](CCCNC(=N)N)NC(=O)[C@H](Cc3ccc(O)cc3)NC(=O)[C@H](CC(=O)O)NC(=O)[C@H](Cc3ccccc3)NC1=O)CSSC[C@H](NC(=O)[C@H](C)N)C(=O)N[C@@H](CC(=O)O)C(=O)N[C@@H](CC(=O)O)C(=O)N[C@@H](CCC(N)=O)C(=O)N[C@@H](Cc1c[nH]c3ccccc13)C(=O)N[C@@H](CCC(=O)O)C(=O)N[C@@H](Cc1ccc(O)cc1)C(=O)N2 [JK1-TPSMB] (H-ACDDQWEYCMFDYRWCG-NH2; linker 2-9-16 via Benzene(1,3,5-(CH2S)3))
JNK3 [1]; [3]
  Ki: 6.6 µM
JNK3 [1]; single experiment with IC50 = 15.6 μM, read-out: KI (Figure 5B)
  Ki: 3.6 µM
JNK3 [1]; [4]
  IC50: 15.6 µM
JNK3 [1]; unlabeled TPSMB bicyclic peptide displacing 5 nM PIT0105006 from 10 nM JNK3, experiment 2, read-out: IC50 Exp. 2
  IC50: 41.3 µM
JNK3 [2]; [5]
  Kd: 1.7 ± 0.8 µM

## CSCC[C@H](NC(=O)[C@H](CS)NC(=O)[C@H](Cc1ccc(O)cc1)NC(=O)[C@H](CCC(=O)O)NC(=O)[C@H](Cc1c[nH]c2ccccc12)NC(=O)[C@H](CCC(N)=O)NC(=O)[C@H](CC(=O)O)NC(=O)[C@H](CC(=O)O)NC(=O)[C@H](CS)NC(=O)[C@H](C)N)C(=O)N[C@@H](Cc1ccccc1)C(=O)N[C@@H](CC(=O)O)C(=O)N[C@@H](Cc1ccc(O)cc1)C(=O)N[C@@H](CCCNC(=N)N)C(=O)N[C@@H](Cc1c[nH]c2ccccc12)C(=O)N[C@@H](CS)C(=O)NCC(N)=O [JK1] (H-ACDDQWEYCMFDYRWCG-NH2)
JNK3 [1]; [3]
  Ki: 6.6 µM
JNK3 [1]; [6]
  IC50: 28.4 µM
JNK3 [2]; [5]
  Kd: 1.7 ± 0.8 µM
JNK3 [2]; fluorescein-labeled unmodified linear peptide, without cyclisation by TPSMB, curve fit (SE: 250 μM), read-out: KD of linear peptide
  Kd: ~390 µM

## CC(C)C[C@@H]1NC(=O)[C@H](CC(=O)O)NC(=O)[C@H](CCC(=O)O)NC(=O)[C@@H]2CSSCc3cc(cc(c3)CSSC[C@@H](C(=O)NCC(N)=O)NC(=O)[C@H](CC(=O)O)NC(=O)[C@H](CC(=O)O)NC(=O)[C@H](CC(N)=O)NC1=O)CSSC[C@H](NC(=O)[C@H](C)N)C(=O)N[C@@H](Cc1ccccc1)C(=O)N[C@@H](Cc1c[nH]c3ccccc13)C(=O)N[C@@H](Cc1c[nH]c3ccccc13)C(=O)N[C@@H](Cc1ccccc1)C(=O)NCC(=O)N[C@@H](C)C(=O)N2 [JK10-TPSMB] (H-ACFWWFGACEDLNDDCG-NH2; linker 2-9-16 via Benzene(1,3,5-(CH2S)3))
JNK3 [1]; [3]
  Ki: 5.5 µM
JNK3 [1]; [6]
  IC50: 23.6 µM

## CC[C@H](C)[C@@H]1NC(=O)[C@H](CCC(=O)O)NC(=O)[C@H](CC(=O)O)NC(=O)[C@H](Cc2c[nH]cn2)NC(=O)[C@@H](NC(=O)[C@H](C)N)CSSCc2cc3cc(c2)CSSC[C@H](NC(=O)[C@H]([C@@H](C)O)NC(=O)[C@H](Cc2c[nH]c4ccccc24)NC1=O)C(=O)N[C@@H](C(C)C)C(=O)N[C@@H](Cc1ccccc1)C(=O)N[C@@H](Cc1c[nH]cn1)C(=O)N[C@@H](CC(=O)O)C(=O)N[C@@H](CCC(=O)O)C(=O)N[C@@H](Cc1ccccc1)C(=O)N[C@H](C(=O)NCC(N)=O)CSSC3 [JK20-TPSMB] (H-ACHDEIWTCVFHDEFCG-NH2; linker 2-9-16 via Benzene(1,3,5-(CH2S)3))
JNK3 [1]; [3]
  Ki: 6.5 µM
JNK3 [1]; [4]
  IC50: 27.8 µM
JNK3 [1]; [6]
  IC50: 27.8 µM
